Reference: patent publication US6852707B1, “Remedies for hyperammonemia” (Suntory Limited, priority 1998, dated 2005)

Experiments:
[1] = use against hyperammonemia; cited from earlier work
[2] = system: rats feeding on high-protein diet; assay: Effects of xylobiose on rats feeding on high-protein diet (Example 2); assay type: in vivo, rat
Description: SD Male rats in a growth stage (15 heads) were fed on a high-protein feed (containing 50% casein) and divided in three groups; the first group consisting of 5 rats were administered 0.5% xylobiose; the second group also consisting of 5 rats were administered 1.0% xylobiose; the third was a control group consisting of 5 rats which were administered distilled water; the animals were let to drink these liquids ad libitum for 3 weeks. Throughout the test period, there were no effects on the amounts of feed and water taken by the rats and the increase in their body weight. The cumulative uptake was 4.7±0.2 g for 0.5% xylobiose and 7.5±0.6 g for 1.0% xylobiose; the daily uptake by the two groups was 0.24 g and 0.37 g, respectively.
At the end of the test, blood was sampled from the rats and the blood ammonia level was measured.

[3] = gastric acid, digestive enzymes (Okazaki et al. 1991, 1992); cited from earlier work

Compound	documented side effects [1]	effects on amounts of feed and water taken and increase in body weight ([2]; 0.5% and 1.0% xylobiose, throughout the 3-week test period)	blood ammonia level versus control group ([2]; 0.5% xylobiose in drinking water ad libitum for 3 weeks)	blood ammonia level versus control group ([2]; 1.0% xylobiose in drinking water ad libitum for 3 weeks, p<0.05)	stability in the digestive tract [3]
NC[C@@H]1O[C@H](O[C@H]2[C@@H](O)[C@H](O[C@@H]3[C@@H](O)[C@H](N)C[C@H](N)[C@H]3O[C@H]3O[C@H](CN)[C@@H](O)[C@H](O)[C@H]3N)O[C@@H]2CO)[C@H](N)[C@@H](O)[C@@H]1O [neomycin]	renal disorder and deafness				
OC1OC[C@@H](O[C@@H]2OC[C@@H](O)[C@H](O)[C@H]2O)[C@H](O)[C@H]1O (some centres unmarked) [xylobiose]		no effects	lower than the value for the control group	significantly low	can reach the large intestine without being decomposed with gastric acid or digestive enzymes
